Experimental data as given in ChEMBL document CHEMBL1777692, “Elucidation of common pharmacophores from analysis of targeted metabolites transported by the multispecific drug transporter-Organic anion transporter1 (Oat1)” (Bioorg Med Chem, 2011).

What was measured:
[1] = biological target: T1, Solute carrier family 22 member 6 (Rattus norvegicus, UniProt O35956); assay: Inhibition of rat Oat1 expressed in pig […] cells; type: cell-based
T1 sequence (O35956 whole entry): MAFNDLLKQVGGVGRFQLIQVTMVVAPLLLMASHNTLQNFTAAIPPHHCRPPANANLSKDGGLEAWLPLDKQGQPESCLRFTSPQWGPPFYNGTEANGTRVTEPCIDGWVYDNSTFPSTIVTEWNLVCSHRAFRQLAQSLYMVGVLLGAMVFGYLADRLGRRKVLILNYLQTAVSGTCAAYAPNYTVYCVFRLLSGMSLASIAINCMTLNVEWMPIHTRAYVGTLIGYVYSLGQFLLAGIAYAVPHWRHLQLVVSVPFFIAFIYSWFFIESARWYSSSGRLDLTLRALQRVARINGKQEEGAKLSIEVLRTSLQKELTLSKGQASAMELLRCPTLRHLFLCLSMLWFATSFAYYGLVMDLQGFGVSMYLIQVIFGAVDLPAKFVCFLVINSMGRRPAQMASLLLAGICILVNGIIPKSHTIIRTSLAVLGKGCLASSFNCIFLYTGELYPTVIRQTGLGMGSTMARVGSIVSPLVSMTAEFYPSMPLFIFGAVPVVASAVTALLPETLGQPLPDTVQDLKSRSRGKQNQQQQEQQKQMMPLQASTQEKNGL

[2] = biological target: T1, Solute carrier family 22 member 6; assay: Inhibition of rat Oat1 expressed in Xenopus oocytes; type: cell-based, Oocyte

| Structure (SMILES) | Ki [1] [µM] | Ki [2] [µM] |
| --- | --- | --- |
| C[C@]12CC[C@@H]3c4ccc(O)cc4CC[C@H]3[C@@H]1CC[C@@H]2O[C@@H]1O[C@H](C(=O)O)[C@@H](O)[C@H](O)[C@H]1O [ESTRADIOL 17B GLUCURONIDE] | > 300 | – |
| CCc1cccc2c3c([nH]c12)C(CC)(CC(=O)O)OCC3 (centres undefined) [ETODOLAC] | > 100 | – |
| CC[C@H](C)C(=O)O[C@H]1C[C@H](O)C=C2C=C[C@H](C)[C@H](CC[C@@H](O)C[C@@H](O)CC(=O)O)[C@H]21 [PRAVASTATIN] | 52 | – |
| CCSC[C@H](NC(C)=O)C(=O)O | – | 1100 |
